Results published in patent US4950602A, “Inhibition of lactate production by pyruvate adducts” (Cornell Research Foundation, Inc., priority 1987, dated 1990).

Tests used:
[1] = biological target: rat brain lactate dehydrogenase; assay: Inhibition of rat brain lactate dehydrogenase (rat brain homogenate); format: biochemical; settings: in the presence of either 0.2 or 2 mM pyruvate and 0.1 mM NADH
[2] = biological target: T1, beef liver glutamate dehydrogenase (Bos taurus, UniProt P00366); assay: Commercial glutamate dehydrogenase with RAP; format: biochemical; settings: 20 μM RAP
T1 construct: purchased Boehringer Mannheim Corp. (Indianapolis); host or cells: beef liver
Text: Enzymes and enzyme assays. Rabbit muscle glyceraldehyde-3-phosphate dehydrogenase (80 U/mg: ammonium sulfate suspension), rabbit muscle glycerol-3-phosphate dehydrogenase (40 U/mg; ammonium sulfate suspension),beef liver glutamate dehydrogenase (120 U/mg: in 50% glycerol), mitochondrial pig heart malate dehydrogenase (1100 U/mg; in 50% glycerol) and yeast hexokinase (140 U/mg; ammonium sulfate suspension) were purchased from Boehringer Mannheim Corp. (Indianapolis). Beef heart lactate dehydrogenase (280 U/mg) was purchased from Worthington Biochemical Corporation (Freehold, N.J.). Porcine heart L-alanine aminotransferase (130 U/mg), rabbit muscle phosphofructokinase (140 U/mg; ammonium sulfate suspension), bovine heart α-ketoglutarate (8 U/mg) and pyruvate (5 U/mg) dehydrogenase complexes, sodium pyruvate, L-methionine-SR-sulfoximine, DL-vinylglycine, NAD^+, NADH and NAD^+ analogues (3-acetylpyridine, thionicotinamide, and 3-pyridinealdehyde adenine dinucleotides) were purchased from Sigma Chemical Company (St. Louis, Mo.).
Each of the enzymes was assayed by procedures in which change of absorbance at 340 nm due to NADH was followed essentially as described by Bergmeyer (1974, Methods of Enzymatic Analysis, 2nd Eng. Ed., Verlag Chemie Weinheim Academic Press, N.Y.) with the following exceptions. […]

[3] = Stability of pyruvate adducts in solution and on storage; format: physicochemical; settings: neutral ph solution; neutral pH values; read-out: t1/2 of reversion to free pyruvate
Procedure: The procedure used was a modification of that of Everse et al (1971, supra) for the synthesis of the NAD-pyruvate adduct Sodium pyruvate (15 mg) and NAD^+ (or NAD^+ analogue) (100 mg) were dissolved in deaerated water. The pH was brought to 11.0 with concentrated NaOH. After standing at room temperature for one hour, the solution was applied to the top of a column of Whatman DE-52 (2×3 cm), washed with deaerated distilled water. The column was eluted with 30 ml of 25 mM ammonium bicarbonate at 4° C. Unreacted pyruvate, NAD^+ and NAD^+ analogues were eluted in this fraction. The highly-colored (yellow-orange) adducts were eluted with 5-6 ml of 25 mM ammonium bicarbonate containing 4% NaCl. The fraction was split into approximately 1 ml portions, flushed with nitrogen, and stored at -70° C. […] Nevertheless, under the slightly alkaline conditions of storage and low temperature, these adducts remained stable for at least 3 months as judged by their continued potency toward inhibition of lactate dehydrogenase and maintenance of absorbance at 340 nm. […] The presence of a reactive carbonyl function was monitored as follows: 0.2-0.3 μ mole of the adduct was added to 50 μl of 0.1% 2,4-dinitrophenylhdrazine in 2 M HCl. […] The absorbance at 430 nm was compared to equivalent amounts of pyruvate and NAD^+ analogue taken through the same procedure. […]

[4] = system: lactate production from D-glucose in rat brain postnuclear supernatant fraction; assay: Lactate production from D-glucose in rat brain postnuclear supernatants; format: biochemical
Procedure: (§1) FIG. 2 is a graphic presentation of inhibition of lactate production from D-glucose by rat brain postnuclear supernatant fraction and by synaptosoms incubated with RAP. Lactate production was determined for a 20-min incubation at 37° C. Values (expressed as % of the control rate) are mean±SD of 3-6 determinations. The control value was 8.1±0.9 nmol of lactate produced/min/mg protein, *P<0.05, **P<0.03 and ***P<0.005vs. control values.
(§2) Postnuclear supernatant fraction (containing the glycolytic enzymes) was prepared from rat brain according to the method of Lai et al (1984, supra). Rat brain synaptosomes were prepared according to the method of Lai et al (1980, Biochem. Pharmacol., 29:141-146). Lactate generated by these preparations in the presence of D-glucose was measured with lactate dehydrogenase as described by Lai et al (1984, supra), except that the concentrations of sodium phosphate buffer and nicotinamide used in the medium were respectively 5 and 20 mM. (In some cases where there was a carry over of appreciable RAP to the assay mix, ten times the recommended amount of lactate dehydrogenase was used and the effectiveness of the enzyme in converting lactate to pyruvate was checked by addition of lactate standards to the cuvette after the initial reaction was over).

pyruvate dehydrogenase = biological target: T2, pyruvate dehydrogenase (Rattus norvegicus, UniProt P26284+P49432+Q6P6R2); assay: Rat brain pyruvate dehydrogenase with RAP; format: biochemical; settings: 20 μM RAP
T2 construct: from tissue; host or cells: rat brain
Procedure: Each of the enzymes was assayed by procedures in which change of absorbance at 340 nm due to NADH was followed essentially as described by Bergmeyer (1974, Methods of Enzymatic Analysis, 2nd Eng. Ed., Verlag Chemie Weinheim Academic Press, N.Y.) with the following exceptions. Phosphofructokinase was assayed according to the method of Lai et al (1984, J. Neurochem., 42:438-446). NAD^+ -linked isocitrate dehydrogenase was assayed as described by Lai and Clark (1976, Biochem. J., 154:423-432). Pyruvate and α-ketoglutarate dehydrogenase complexes were respectively assayed according to the methods of Lai and Sheu (1985, J. Neurochem., 45:1861-1868) and Lai and Cooper (1986) (J. Neurochem, 47:1376-1386).

[5] = system: lactate production from D-glucose in synaptosomes; assay: Lactate production from D-glucose in rat brain synaptosomes; format: cell-based
Procedure: as §1, §2

T2 sequence (P26284 30-390): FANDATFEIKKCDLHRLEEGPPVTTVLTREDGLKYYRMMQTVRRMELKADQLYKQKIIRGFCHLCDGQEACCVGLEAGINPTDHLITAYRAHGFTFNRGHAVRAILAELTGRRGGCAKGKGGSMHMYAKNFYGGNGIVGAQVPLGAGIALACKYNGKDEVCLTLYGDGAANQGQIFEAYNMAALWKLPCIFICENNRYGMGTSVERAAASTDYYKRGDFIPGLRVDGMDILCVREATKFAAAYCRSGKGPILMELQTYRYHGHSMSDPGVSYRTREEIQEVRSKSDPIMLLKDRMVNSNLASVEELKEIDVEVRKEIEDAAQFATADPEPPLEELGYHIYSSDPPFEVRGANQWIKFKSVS
T2 sequence (P49432 31-359): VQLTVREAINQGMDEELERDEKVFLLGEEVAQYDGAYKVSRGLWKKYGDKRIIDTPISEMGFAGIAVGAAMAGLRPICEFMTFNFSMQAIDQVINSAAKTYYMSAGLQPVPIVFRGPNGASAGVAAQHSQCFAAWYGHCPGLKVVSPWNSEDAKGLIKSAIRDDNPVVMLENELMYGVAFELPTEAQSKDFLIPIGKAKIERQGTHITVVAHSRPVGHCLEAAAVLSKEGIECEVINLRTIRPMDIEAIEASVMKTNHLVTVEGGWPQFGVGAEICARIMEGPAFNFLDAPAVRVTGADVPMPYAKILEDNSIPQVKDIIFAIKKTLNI
T2 sequence (Q6P6R2 36-509): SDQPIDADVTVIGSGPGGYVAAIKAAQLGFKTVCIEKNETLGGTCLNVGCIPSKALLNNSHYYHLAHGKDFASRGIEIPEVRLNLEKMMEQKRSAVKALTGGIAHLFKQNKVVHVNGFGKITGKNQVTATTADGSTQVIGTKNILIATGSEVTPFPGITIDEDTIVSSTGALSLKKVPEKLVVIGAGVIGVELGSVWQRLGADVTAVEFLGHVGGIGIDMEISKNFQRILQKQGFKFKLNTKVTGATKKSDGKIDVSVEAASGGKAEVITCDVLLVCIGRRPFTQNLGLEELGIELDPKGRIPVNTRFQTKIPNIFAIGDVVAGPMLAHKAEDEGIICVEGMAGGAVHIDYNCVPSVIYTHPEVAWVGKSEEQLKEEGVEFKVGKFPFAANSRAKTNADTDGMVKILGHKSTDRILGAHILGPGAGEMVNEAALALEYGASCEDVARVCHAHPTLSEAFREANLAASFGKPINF
T1 sequence (P00366 58-558): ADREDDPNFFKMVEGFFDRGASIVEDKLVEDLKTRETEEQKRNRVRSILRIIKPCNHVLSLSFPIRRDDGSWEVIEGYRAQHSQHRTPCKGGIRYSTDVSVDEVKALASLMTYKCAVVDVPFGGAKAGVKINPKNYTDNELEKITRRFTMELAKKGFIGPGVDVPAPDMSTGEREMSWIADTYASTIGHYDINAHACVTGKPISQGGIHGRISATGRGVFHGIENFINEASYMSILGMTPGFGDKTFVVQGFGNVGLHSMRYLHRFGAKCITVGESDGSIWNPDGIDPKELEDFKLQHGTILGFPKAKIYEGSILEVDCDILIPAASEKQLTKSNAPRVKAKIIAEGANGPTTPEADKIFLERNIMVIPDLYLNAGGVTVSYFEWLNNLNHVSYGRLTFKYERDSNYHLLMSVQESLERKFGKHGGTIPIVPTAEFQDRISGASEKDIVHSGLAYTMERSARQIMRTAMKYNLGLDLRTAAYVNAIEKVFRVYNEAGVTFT

In the case of `Nc1ncnc2c1ncn2[C@@H]1O[C@H](COP(=O)(O)OP(=O)(O)OC[C@H]2O[C@@H](N3C=CC(CC(=O)C(=O)O)C(C=O)=C3)[C@H](O)[C@@H]2O)[C@@H](O)[C@H]1O` (stereo partly drawn) [RAP, 3(-4-(reduced 3-pyridinealdehyde-adeninedinucleotide))-pyruvate], the IC50 [1] is reported as ~100 nM, the inhibition at 20 µM [2] is reported as ≤ 20% and the half-life [3] is reported as 1.5 h. The “inhibition of lactate production from glucose in rat brain extracts” value [4] was “strongly inhibited”, the “concentrations at which lactate production is inhibited in a concentration-dependent manner” value ([4]; rat brain postnuclear supernatants, D-glucose) was “higher than 200 nM” and the IC50 ([4]; rat brain postnuclear supernatants, D-glucose, 20-min incubation at 37° C., true concentration lower since RAP dissociates, read-out: formal "concentration" required to inhibit lactate production by 50%) was 1000 to 9000 nM. The “effect on rat brain pyruvate dehydrogenase” value (pyruvate dehydrogenase) was “little or no effect”, the “inhibition of lactate production from glucose in synaptosomes compared with rat brain extracts” value [5] was “less effective” and the “inhibition of lactate production in synaptosomes” value ([5]; initial concentrations of 250-500 μM) was 15-30%.
